US9604998B2, “Inhibitors of the renal outer medullary potassium channel” (MERCK SHARP & DOHME CORP., priority 2013, dated 2017)

Experiments:
[1] = target: hROMK (hKir1.1) (Homo sapiens (Human), UniProt P48048); experiment: Thallium Flux Assay (ROMK channel functional thallium flux, FLIPR-Tetra); assay type: cell-based; settings: HEK293 cells stably expressing hROMK (hKir1.1); read-out: Thallium Flux IC50
Description: HEK293 cells stably expressing hROMK (hKir1.1) were grown at 37° C. in a 10% CO2 humidified incubator in complete growth media: Dulbecco's Modified Eagle Medium supplemented with non-essential amino acids, Penicillin/Streptomycin/Glutamine, G418 and FBS. At >80% confluency, aspirate the media from the flask and rinse with 10 mL Calcium/Magnesium-free PBS. […] To dislodge the cell, gently bang the side of the flask with your hand. Triturate the cells completely and then transfer the cells to 25 mL complete media. Centrifuge at 1,500 rpm for 6 min followed by resuspension in complete growth media and determine cell concentration.
Compound Buffer (per microplate): 20 mL Probenecid/Assay Buffer; 0.3 mM ouabain (10 mM ouabain in water can be stored in amber bottle/aluminum foil at room temperature); Test compound
Stimulant Buffer (prepared at 5× final concentration in 1× FluxOR™ Chloride-Free Buffer): 7.5 mM Thallium sulfate and […] (to give a final assay concentration of 3 mM Thallium/0.3 mM Potassium). Store at 4° C. when not in use. If kept sterile, this solution is good for months.
The ROMK channel functional thallium flux assay is performed in 384 wells, using the FLIPR-Tetra instrument. HEK-hKir1.1 cells are seeded in Poly-D-Lysine microplates and kept in a 37° C.-10% CO2 incubator overnight. On the day of the experiment, the growth media is replaced with the FluxOR™ reagent loading buffer and incubated, protected from light, at ambient temperature (23-25° C.) for 90 min. The loading buffer is replaced with assay buffer±test compound followed by 30 min incubation at ambient temperature, where the Thallium/Potassium stimulant is added to the microplate.
1. Seed HEK-hKir1.1 cells (50 μl at 20,000 cells/well) in 384-well PDL coated Microplates
2. Allow cells to adhere overnight in humidified 37° C./10% CO2 incubator
3. Completely remove cell growth media from microplate and replace with 25 μl loading buffer
4. Incubate Microplate at room temperature, protected form light, for 90 min
5. Remove loading buffer and replace with 25 μl 1× Assay Buffer±test compound.
6. Incubate microplate at room temperature, protected from light, for 30 min
7. […] Excitation=400 nm, Emission=460 & 580 nm. Collect data for ˜10 min.
The fluorescence intensity of wells containing 3 μM of a standard control ROMK inhibitor of the present invention is used to define the ROMK-sensitive component of thallium flux. Fluorescence in the presence of test compounds is normalized to control values to provide % fluorescence change.

[2] = target: Kir1.1 (ROMK1) (Homo sapiens (Human), UniProt P48048); experiment: Electrophysiology Assay (whole cell voltage clamp, IonWorks Quattro); assay type: cell-based; settings: Chinese hamster ovary cells stably expressing Kir1.1; block during voltage step to 0 mV; read-out: Electrophysiology IC50
Description: Chinese hamster ovary cells stably expressing Kir1.1 channels were maintained in T-75 flasks in cell culture media in a humidified 10% CO2 incubator at 37° C. Prior to an experiment, Kir1.1 expression was induced by overnight incubation with 1 mM sodium butyrate. […] After centrifugation, the cell pellet was resuspended in approximately 4.0 mL of bath solution and placed in the IonWorks instrument. The intracellular solution consisted of (in mM): 80 K gluconate, 40 KCl, 20 KF, 3.2 MgCl2, 3 EGTA, 5 Hepes, pH 7.4. Electrical access to the cytoplasm was achieved by perforation in 0.13 mg/mL amphotericin B for 4 min. […] Voltage protocols and current recordings were performed using the IonWorks HT software/hardware system. Currents were sampled at 1 kHz. No correction for liquid junction potentials was used. The test pulse, consisting of a 100 ms step to 0 mV from a holding potential of −70 mV, followed by a 100 ms voltage ramp from −70 mV to +70 mV, was applied before and after a 6 min compound incubation period. Test compounds were prepared by diluting DMSO stock solutions into the bath solution at 3× the final concentration and placed in the instrument in 96-well polypropylene plates. Current amplitudes were measured using the IonWorks software.

Kir1.1 (ROMK1), sequence (P48048 whole entry, species assumed): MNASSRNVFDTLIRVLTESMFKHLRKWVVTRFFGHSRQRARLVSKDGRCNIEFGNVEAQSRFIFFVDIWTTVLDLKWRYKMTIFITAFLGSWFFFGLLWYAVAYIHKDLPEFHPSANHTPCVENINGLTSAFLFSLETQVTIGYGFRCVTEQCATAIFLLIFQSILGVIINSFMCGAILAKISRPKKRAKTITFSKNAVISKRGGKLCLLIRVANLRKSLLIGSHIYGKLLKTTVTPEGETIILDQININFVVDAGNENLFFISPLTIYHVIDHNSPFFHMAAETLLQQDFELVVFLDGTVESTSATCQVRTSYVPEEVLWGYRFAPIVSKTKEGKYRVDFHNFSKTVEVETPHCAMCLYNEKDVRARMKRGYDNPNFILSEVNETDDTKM
hROMK (hKir1.1), sequence (P48048 whole entry): as the sequence (P48048 whole entry, species assumed) above

Q: For `COc1cc(C(O)CN2CCN3C[C@@H](c4ccc5c(c4C)COC5=O)OC[C@@H]3C2)cc(F)c1C#N` (single isomer, unassigned) [Example 54], which IC50 [1] is on record?
A: Its IC50 is 0.34 µM.

Q: And the IC50 [2]?
A: The IC50 was 0.17 µM.

Q: For `COc1cc(C(O)CN2CCN3C[C@H](c4ccc5c(c4C)COC5=O)OC[C@H]3C2)c(F)cc1C#N` (stereo partly drawn) [Example 36, (3S,9aR)-8-[2-(4-cyano-2-fluoro-5-methoxyphenyl)-2-hydroxyethyl]-3-(4-methyl-1-oxo-1,3-dihydro-2-benzofuran-5-yl)octahydropyrazino[2,1-c][1,4]oxazin-5-ium chloride], which IC50 [1] is on record?
A: The IC50 was 0.39 µM.

Q: And the IC50 [2]?
A: The IC50 was 0.12 µM.

Q: With `COc1c([C@@H]2CN3CCN(C[C@@H](O)c4ccc5c(c4C)COC5=O)C[C@H]3CO2)ccc(C#N)c1F` [Example 31, (3R,9aS)-3-(4-cyano-3-fluoro-2-methoxyphenyl)-8-[(2S)-2-hydroxy-2-(4-methyl-1-oxo-1,3-dihydro-2-benzofuran-5-yl)ethyl]octahydropyrazino[2,1-c][1,4]oxazin-8-ium chloride] as the compound, how does the IC50 [1] read?
A: Its IC50 is 0.65 µM.

Q: For `Cc1c([C@@H]2CN3CCN(CC(O)c4ccc5c(c4)C[C@H](C)OC5=O)C[C@H]3CO2)ccc2c1COC2=O` (single isomer, unassigned) [Example 45], which IC50 [1] is on record?
A: The IC50 was 0.47 µM.

Q: What about the IC50 [2] of the same compound?
A: Its IC50 is 0.12 µM.

Q: `Cc1cc2c(cc1C(O)CN1CCN3C[C@@H](c4ccc5c(c4C)COC5=O)OC[C@@H]3C1)COC2=O` (single isomer, unassigned) [Example 42] was tested. Which IC50 [1] did it give?
A: The IC50 was 0.22 µM.

Q: And the IC50 [2]?
A: Its IC50 is 0.08 µM.

Q: With `Cc1cc2c(cc1C(O)CN1CCN3C[C@@H](c4ccc5c(c4C)COC5=O)OC[C@@H]3C1)COC2=O` (single isomer, unassigned) [Example 43] as the compound, how does the IC50 [1] read?
A: Its IC50 is 0.21 µM.

Q: What about the IC50 [2] of the same compound?
A: Its IC50 is 0.13 µM.

Q: How did the IC50 [1] turn out when `COc1cc(C(O)CN2CCN3C[C@@H](c4ccc5c(c4C)COC5=O)OC[C@@H]3C2)c(F)cc1C#N` (stereo partly drawn) [Example 15, (3R,9aS)-8-[2-(4-cyano-2-fluoro-5-methoxyphenyl)-2-hydroxyethyl]-3-(4-methyl-1-oxo-1,3-dihydro-2-benzofuran-5-yl)octahydropyrazino[2,1-c][1,4]oxazin-5-ium chloride] was run?
A: Its IC50 is 0.67 µM.

Q: What about the IC50 [2] of the same compound?
A: Its IC50 is 0.29 µM.

Q: `COc1cc(CCN2CCN3C[C@@H](c4ccc5c(c4C)COC5=O)NC[C@@H]3C2)ccc1C#N` [Example 101, 2-Methoxy-4-(2-((7R,9aR)-7-(4-methyl-1-oxo-1,3-dihydroisobenzofuran-5-yl)hexahydro-1H-pyrazino[1,2-a]pyrazin-2(6H)-yl)ethyl)benzonitrile] was tested. Which IC50 [1] did it give?
A: Its IC50 is 0.21 µM.

Q: And the IC50 [2]?
A: Its IC50 is 0.1 µM.

Q: For `Cc1c([C@@H](O)CN2CCN3C[C@@H](c4ccc(C#N)c(F)c4)OC[C@H]3C2)ccc2c1COC2=O` [Example 29, (3R,9aR)-3-(4-cyano-3-fluorophenyl)-8-[(2R)-2-hydroxy-2-(4-methyl-1-oxo-1,3-dihydro-2-benzofuran-5-yl)ethyl]octahydropyrazino[2,1-c][1,4]oxazin-8-ium chloride], which IC50 [1] is on record?
A: Its IC50 is 0.49 µM.

Q: And the IC50 [2]?
A: The IC50 was 0.08 µM.

Q: How did the IC50 [1] turn out when `Cc1c(CCN2CCN3C[C@H](c4ccc5c(c4)COC5=O)OC[C@@H]3C2)ccc2c1COC2=O` [Example 70] was run?
A: The IC50 was 0.12 µM.

Q: And the IC50 [2]?
A: Its IC50 is 0.03 µM.

Q: With `Cc1c([C@@H]2CN3CCN(CC(O)c4cc(F)c(C#N)c(F)c4)C[C@H]3CO2)ccc2c1COC2=O` (stereo partly drawn) [Example 38, (3R,9aS)-8-[2-(4-cyano-3,5-difluorophenyl)-2-hydroxyethyl]-3-(4-methyl-1-oxo-1,3-dihydro-2-benzofuran-5-yl)octahydropyrazino[2,1-c][1,4]oxazin-5-ium chloride] as the compound, how does the IC50 [1] read?
A: The IC50 was 0.44 µM.

Q: And the IC50 [2]?
A: The IC50 was 0.12 µM.

Q: For `COc1c(CCN2CCN3C[C@H](c4ccc5c(c4C)COC5=O)OC[C@H]3C2)ccc(C#N)c1F` [Example 94], which IC50 [1] is on record?
A: Its IC50 is 0.24 µM.

Q: What about the IC50 [2] of the same compound?
A: The IC50 was 0.14 µM.

Q: For `COc1cc([C@H]2CN3CCN(C[C@H](O)c4ccc5c(c4C)COC5=O)C[C@@H]3CO2)ccc1C#N` [Example 1, 4-{(3S,9aR)-8-[(2R)-2-hydroxy-2-(4-methyl-1-oxo-1,3-dihydro-2-benzofuran-5-yl)ethyl]octahydropyrazino[2,1-c][1,4]oxazin-3-yl}-2-methoxybenzonitrile], which IC50 [1] is on record?
A: Its IC50 is 0.22 µM.

Q: And the IC50 [2]?
A: Its IC50 is 0.11 µM.

Q: What does the source list for `COc1c([C@@H]2CN3CCN(C[C@H](O)c4ccc5c(c4C)COC5=O)C[C@@H]3CO2)ccc(C#N)c1F` [Example 32, (3R,9aR)-3-(4-cyano-3-fluoro-2-methoxyphenyl)-8-[(2R)-2-hydroxy-2-(4-methyl-1-oxo-1,3-dihydro-2-benzofuran-5-yl)ethyl]octahydropyrazino[2,1-c][1,4]oxazin-8-ium chloride]?
A: IC50 [1]: 0.28 µM; IC50 [2]: 0.18 µM

Q: Which IC50 [1] does the source give for `COc1cc([C@H]2CN3CCN(CC(O)c4ccc5c(c4C)COC5=O)C[C@H]3CO2)ccc1C#N` (stereo partly drawn) [Example 4, (3S,9aS)-3-(4-cyano-3-methoxyphenyl)-8-[2-hydroxy-2-(4-methyl-1-oxo-1,3-dihydro-2-benzofuran-5-yl)ethyl]octahydropyrazino[2,1-c][1,4]oxazin-5-ium chloride] here?
A: The IC50 was 0.43 µM.

Q: And the IC50 [2]?
A: Its IC50 is 0.08 µM.

Q: `Cc1c([C@H]2CN3CCN(CC(O)c4ccc(-n5cnnn5)nc4)C[C@H]3CO2)ccc(F)c1C#N` (single isomer, unassigned) [Example 18] was tested. Which IC50 [1] did it give?
A: Its IC50 is 0.29 µM.

Q: What about the IC50 [2] of the same compound?
A: Its IC50 is 0.1 µM.

Q: What does the source list for `COc1cc(C(O)CN2CCN3C[C@@H](c4ccc5c(c4C)COC5=O)OC[C@@H]3C2)c(F)cc1C#N` (single isomer, unassigned) [Example 37]?
A: IC50 [1]: 0.47 µM; IC50 [2]: 0.11 µM

Q: Which IC50 [1] does the source give for `COc1c(CCN2CCN3C[C@@H](c4ccc5c(c4C)COC5=O)OC[C@@H]3C2)ccc(C#N)c1F` [Example 95] here?
A: Its IC50 is 0.12 µM.

Q: And the IC50 [2]?
A: The IC50 was 0.11 µM.

Q: For `COc1c([C@@H]2CN3CCN(C[C@H](O)c4ccc5c(c4C)COC5=O)C[C@H]3CO2)ccc(C#N)c1F` [Example 30, (3R,9aS)-3-(4-cyano-3-fluoro-2-methoxyphenyl)-8-[(2R)-2-hydroxy-2-(4-methyl-1-oxo-1,3-dihydro-2-benzofuran-5-yl)ethyl]octahydropyrazino[2,1-c][1,4]oxazin-8-ium chloride], which IC50 [1] is on record?
A: Its IC50 is 0.23 µM.

Q: For `Cc1nc(-n2cnnn2)ccc1C(O)CN1CCN2C[C@@H](c3ccc(F)c(C#N)c3C)OC[C@@H]2C1` (single isomer, unassigned) [Example 21], which IC50 [1] is on record?
A: Its IC50 is 0.26 µM.

Q: `COc1cc(C(O)CN2CCN3C[C@@H](c4ccc5c(c4C)COC5=O)OC[C@@H]3C2)c(Cl)cc1C#N` (stereo partly drawn) [Example 9, (3R,9aS)-8-[2-(2-chloro-4-cyano-5-methoxyphenyl)-2-hydroxyethyl]-3-(4-methyl-1-oxo-1,3-dihydro-2-benzofuran-5-yl)octahydropyrazino[2,1-c][1,4]oxazin-5-ium chloride] was tested. Which IC50 [1] did it give?
A: The IC50 was 0.43 µM.

Q: How did the IC50 [1] turn out when `Cc1c([C@@H]2CN3CCN(CC(O)c4cccc(-n5cnnn5)c4)C[C@@H]3CO2)ccc(F)c1C#N` (single isomer, unassigned) [Example 23] was run?
A: The IC50 was 0.32 µM.

Q: How did the IC50 [1] turn out when `Cc1c([C@@H]2CN3CCN(C[C@H](O)c4ccc5c(c4C)COC5=O)C[C@H]3CN2)ccc(F)c1C#N` [Example 102, 6-fluoro-3-((3R,9aR)-8-((R)-2-hydroxy-2-(4-methyl-1-oxo-1,3-dihydroisobenzofuran-5-yl)ethyl)octahydro-1H-pyrazino[1,2-a]pyrazin-3-yl)-2-methylbenzonitrile] was run?
A: The IC50 was 0.21 µM.
